For 24 compounds, IC50 results are on record in patent US20210317092A1 (BAYER PHARMA AKTIENGESELLSCHAFT, priority 2016, published 2021).

Read-outs that look alike come from different tables or passages of the source.

In experiment [1] the target is T1, human Bradykinin B1 receptor (Homo sapiens, UniProt P46663).
T1 construct: host or cells: CHO-K1
T1 sequence (P46663 1-353): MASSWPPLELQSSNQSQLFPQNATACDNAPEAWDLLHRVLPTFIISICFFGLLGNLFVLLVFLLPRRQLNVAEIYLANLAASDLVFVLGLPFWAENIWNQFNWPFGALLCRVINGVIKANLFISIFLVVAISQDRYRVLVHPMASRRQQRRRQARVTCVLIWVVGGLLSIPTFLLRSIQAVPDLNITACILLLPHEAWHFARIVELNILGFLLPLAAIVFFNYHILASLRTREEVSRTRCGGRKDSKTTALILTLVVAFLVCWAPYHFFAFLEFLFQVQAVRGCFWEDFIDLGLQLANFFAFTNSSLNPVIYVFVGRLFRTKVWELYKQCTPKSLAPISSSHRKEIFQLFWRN
Nature of the experiment: Calcium flux Assay (FLIPR) with recombinant CHO-K1 cells expressing human Bradykinin B1 receptor, in presence (hB1 IC50) or absence (hB1 free IC50) of 0.1% BSA. In kind it is cell-based. On the technique in general: Calcium flux is commonly read through the fluorescence of an indicator in the cells.

For experiment [2], the target named is T2, native human Bradykinin B1 receptor (Homo sapiens, UniProt P46663).
T2 construct: which express native human Bradykinin B1 receptor after induction with human IL-10; Coriell Institute; host or cells: IMR-90 human foetal lung fibroblasts, cytokine-induced
T2 sequence (P46663 1-353): T1 sequence (P46663 1-353)
Nature of the experiment: Calcium flux Assay (FLIPR) with human fibroblasts expressing Bradykinin B1 receptor (hB1 IMR-90). In kind it is cell-based. Particulars: IMR-90 human fibroblasts expressing native Bradykinin B1 receptor. An outline of the steps: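 IMR-90 human foetal lung fibroblasts induced with 0.35 ng/mL […] for 3 h, Fluo-4/AM-loaded, preincubated with compound (8 concentrations, triplicate) for 30 min at 28 °C, then challenged with Lys-(Des-Arg)-bradykinin at EC90. Ca2+ fluorescence was read at 538 nm; full inhibition set by 20 µM Lys-(Des-Arg-Leu)-bradykinin; IC50 derived.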

Setting [3] is: in absence of 0.1% BSA, read-out: hB1 free IC50.
[4] abbreviates: in presence of 0.1% BSA, read-out: hB1 IC50.

What is called IC50 is the concentration that inhibits the measured activity by half. Consider `O=C(Nc1cc(F)c(-c2ccc(C(F)(F)F)nc2)c(-c2nnn[nH]2)c1)C1(c2cccc(Cl)c2)CC1` [Example 241, 1-(3-chlorophenyl)-N-{3-fluoro-5-(1H-tetrazol-5-yl)-4-[6-(trifluoromethyl)pyridin-3-yl]phenyl} cyclopropane-carboxamide], for which the figures for the IC50 in experiment [1] (setting [3]) and in experiment [2] were 54.2 nM and 127 nM, respectively.
Taken in the same sequence, the figures for `Cc1ccc(C2(C(=O)Nc3ccc(-c4ccc(C(F)(F)F)nc4)c(-c4nnn[nH]4)c3)CC2)c(F)c1` [Example 291, 1-(2-fluoro-4-methylphenyl)-N-{3-(1H-tetrazol-5-yl)-4-[6-(trifluoromethyl)pyridin-3-yl]phenyl}cyclopro-panecarboxa-mide] were 22.5 nM and 2.36 nM.
With `CCOc1ccc(-c2c(Cl)cc(NC(=O)C3(c4cccc(Cl)c4F)CC3)cc2-c2nnn[nH]2)cn1` [Example 248, N-[3-chloro-4-(6-ethoxypyridin-3-yl)-5-(1H-tetrazol-5-yl)phenyl]-1-(3-chloro-2-fluoropheny) cyclopropane-carboxamide], the IC50 worked out at 14.4 nM in experiment [1] (setting [3]) and 25.2 nM in experiment [2].
With `CCOc1ccc(-c2c(F)cc(NC(=O)C3(c4cccc(Cl)c4)CC3)cc2-c2nnn[nH]2)cn1` [Example 236, 1-(3-chlorophenyl)-N-[4-(6-ethoxypyridin-3-yl)-3-fluoro-5-(1H-tetrazol-5-yl)phenyl] cyclopropane-carboxamide], the values for the IC50 in experiment [1] (setting [3]) and in experiment [2] were 2.9 nM and 15.6 nM, respectively.
Regarding `COc1ccc(-c2ccc(NC(=O)C3(c4cc(Cl)ccc4F)CC3)cc2-c2nnn[nH]2)cc1OC` [Example 17, 1-(5-chloro-2-fluorophenyl)-N-[3′,4′-dimethoxy-2-(1H-tetrazol-5-yl)biphenyl-4-yl]cyclopropane carboxamide], the IC50 in experiment [1] (setting [4]) came out at 68.5 nM; in experiment [2] it was 263 nM.
Turning to `CCOc1ccc(-c2ccc(NC(=O)C3(c4ccc(F)c(C)c4)CC3)cc2-c2nnn[nH]2)cn1` [Example 102, N-[4-(6-ethoxypyridin-3-yl)-3-(1H-tetrazol-5-yl]phenyl]-1-(4-fluoro-3-methylphenyl) cyclopropane-carboxamide], the values for the IC50 in experiment [1] (setting [4]) and in experiment [2] were 34.8 nM and 21 nM, respectively.
`COc1cc(C(F)(F)F)ccc1C1(C(=O)Nc2ccc(-c3ccc(C(F)(F)F)nc3)c(-c3nnn[nH]3)c2)CC1` [Example 293, 1-[2-methoxy-4-(trifluoromethyl)phenyl]-N-{3-(1H-tetrazol-5-yl)-4-[6-(trifluoromethyl)pyridin-3-yl]phenyl}cyclopro-panecarboxa-mide]: the results for the IC50 in experiment [1] (setting [3]) and in experiment [2] were 297 nM and 266 nM, respectively.
Regarding `COc1ccc(-c2ccc(NC(=O)C3(c4ccc(Cl)cc4F)CC3)cc2-c2nnn[nH]2)cc1OC` [Example 18, 1-(4-chloro-2-fluorophenyl)-N-[3′,4′-dimethoxy-2-(1H-tetrazol-5-yl)biphenyl-4-yl]cyclopropane carboxamide], the figures for the IC50 in experiment [1] (setting [4]) and in experiment [2] were 40.2 nM and 27.4 nM, respectively.
On to `COc1ccc(-c2ccc(NC(=O)C3(c4ccccc4Cl)CC3)cc2-c2nnn[nH]2)cc1OC` [Example 36, 1-(2-chlorophenyl)-N-[3′,4′-dimethoxy-2-(1H-tetrazol-5-yl)biphenyl-4-yl]cyclopropane carboxamide], for which the IC50 in experiment [1] (setting [4]) turned out to be 128 nM; in experiment [2] it was 104 nM.
Turning to `CCOc1ncc(-c2ccc(NC(=O)C3(c4cccc(Cl)c4)CC3)cc2-c2nnn[nH]2)cn1` [Example 184, 1-(3-chlorophenyl)-N-[4-(2-ethoxypyrimidin-5-yl)-3-(1H-tetrazol-5-yl)phenyl] cyclopropane-carboxamide], the IC50 worked out at 24.6 nM in experiment [1] (setting [3]), 50.5 nM in experiment [1] (setting [4]) and 22.3 nM in experiment [2].
For the compound `O=C(Nc1ccc(-c2ccc(C(F)(F)F)nc2)c(-c2nnn[nH]2)c1)C1(c2cccc(C(F)(F)F)c2)CC1` [Example 144, N-{3-(1H-tetrazol-5-yl)-4-[6-(trifluoromethyl)pyridin-3-yl]phenyl}-1-[3-(trifluoromethyl)phenyl] cyclopropane-carboxamide], the IC50 came to 300 nM in experiment [1] (setting [3]) and 289 nM in experiment [2].
For `CCOc1cncc(-c2ccc(NC(=O)C3(c4ccc(C(F)(F)F)cc4)CC3)cc2-c2nnn[nH]2)c1` [Example 156, N-[4-(5-ethoxypyridin-3-yl)-3-(1H-tetrazol-5-yl)phenyl]-1-[4-(trifluoromethyl)phenyl] cyclopropane-carboxamide], the values for the IC50 in experiment [1] (setting [3]), in experiment [1] (setting [4]) and in experiment [2] were 36.6 nM, 27.5 nM and 84.6 nM, respectively.
`O=C(Nc1ccc(-c2ccc(C(F)(F)F)nc2)c(-c2nnn[nH]2)c1)C1(c2ccc(F)c(Cl)c2)CC1` [Example 139, 1-(3-chloro-4-fluorophenyl)-N-{3-(1H-tetrazol-5-yl)-4-[6-(trifluoromethyl)pyridin-3-yl]phenyl} cyclopropane-carboxamide]: the IC50 in experiment [1] (setting [3]) was found to be 22.6 nM; in experiment [2], 91 nM.
Taken in the same sequence, the figures for `O=C(Nc1ccc(-c2ccc(C(F)(F)F)nc2)c(-c2nnn[nH]2)c1)C1(c2cc(F)ccc2F)CC1` [Example 141, 1-(2,5-difluorophenyl)-N-{3-(1H-tetrazol-5-yl)-4-[6-(trifluoromethyl)pyridin-3-yl]phenyl} cyclopropane-carboxamide] were 224 nM and 141 nM.
Regarding `CCOc1ccc(-c2ccc(NC(=O)C3(c4cccc(C(F)(F)F)c4)CC3)cc2-c2nnn[nH]2)cn1` [Example 98, N-[4-(6-ethoxypyridin-3-yl)-3-(1H-tetrazol-5-yl)phenyl]-1-[3-(trifluoromethyl)phenyl] cyclopropane-carboxamide], the IC50 in experiment [1] (setting [4]) came out at 8.67 nM; in experiment [2], 5.78 nM.
With `CCOc1ccc(-c2cc(O)c(NC(=O)C3(c4ccc(Cl)cc4)CC3)cc2-c2nnn[nH]2)cn1` [Example 227, 1-(4-chlorophenyl)-N-[4-(6-ethoxypyridin-3-yl)-2-hydroxy-5-(1H-tetrazol-5-yl)phenyl] cyclopropane-carboxamide], the IC50 in experiment [1] (setting [4]) was 83.8 nM; in experiment [2] it was 177 nM.
For `O=C(Nc1ccc(-c2ccc(C(F)(F)F)cc2)c(-c2nnn[nH]2)c1)C1(c2cccc(Cl)c2)CC1` [Example 128, 1-(3-chlorophenyl)-N-[2-(1H-tetrazol-5-yl)-4′-(trifluoromethyl)biphenyl-4-yl]cyclopropane carboxamide], the half-maximal inhibitory concentration (IC50) in experiment [1] (setting [3]) came to 2.68 nM; in experiment [1] (setting [4]), 137 nM; in experiment [2], 63.3 nM.
With `O=C(Nc1cc(F)c(-c2ccnc(C(F)(F)F)c2)c(-c2nnn[nH]2)c1)C1(c2cccc(Cl)c2)CC1` [Example 243, 1-(3-chlorophenyl)-N-{3-fluoro-5-(1H-tetrazol-5-yl)-4-[2-(trifluoromethyl)pyridin-4-yl]phenyl} cyclopropane-carboxamide], the values for the IC50 in experiment [1] (setting [3]) and in experiment [2] were 203 nM and 575 nM, respectively.
In the case of `COc1ccc(-c2ccc(NC(=O)C3(c4ccc(C(F)(F)F)cc4)CC3)cc2-c2nnn[nH]2)cc1OC` [Example 44, N-[3′,4′-dimethoxy-2-(1H-tetrazol-5-yl)biphenyl-4-yl]-1-[4-(trifluoromethyl)phenyl] cyclopropane-carboxamide], the IC50 in experiment [1] (setting [3]) is 5.7 nM; in experiment [1] (setting [4]), 23 nM; in experiment [2] it was 5.47 nM.
Regarding `CCOc1ccc(-c2ccc(NC(=O)C3(c4ccc(C(F)(F)F)cc4)CC3)cc2-c2nnn[nH]2)cn1` [Example 105, N-[4-(6-ethoxypyridin-3-yl)-3-(1H-tetrazol-5-yl)phenyl]-1-[4-(trifluoromethyl)phenyl] cyclopropane-carboxamide], the IC50 in experiment [1] (setting [3]) was found to be 4.54 nM; in experiment [1] (setting [4]), 10.9 nM; in experiment [2] it was 10.7 nM.
Taken in the same sequence, the figures for `CCOc1ccc(-c2ccc(NC(=O)C3(c4ccc(F)cc4F)CC3)cc2-c2nnn[nH]2)cn1` [Example 101, 1-(2,4-difluorophenyl)-N-[4-(6-ethoxypyridin-3-yl)-3-(1H-tetrazol-5-yl)phenyl] cyclopropane-carboxamide] were 24.5 nM, 38.7 nM and 22.1 nM.
Taken in the same sequence, the figures for `Cn1ncc2ccc(-c3ccc(NC(=O)C4(c5cccc(Cl)c5F)CC4)cc3-c3nnn[nH]3)cc21` [Example 214, 1-(3-chloro-2-fluorophenyl)-N-[4-(1-methyl-1H-indazol-6-yl)-3-(1H-tetrazol-5-yl)phenyl] cyclopropane carboxamide] were 7.93 nM, 47.2 nM and 26.9 nM.
For the compound `CCOc1ccc(-c2ccc(NC(=O)C3(c4ccc(OC)c(F)c4)CC3)cc2-c2nnn[nH]2)cn1` [Example 86, N-[4-(6-ethoxypyridin-3-yl)-3-(1H-tetrazol-5-yl)phenyl]-1-(3-fluoro-4-methoxyphenyl) cyclopropane-carboxamide], the IC50 in experiment [1] (setting [3]) was 40.3 nM; in experiment [1] (setting [4]), 92.5 nM; in experiment [2] it was 27.4 nM.
Taken in the same sequence, the figures for `CCc1cc(-c2ccc(NC(=O)C3(c4cccc(Cl)c4)CC3)cc2-c2nnn[nH]2)ccn1` [Example 181, 1-(3-chlorophenyl)-N-[4-(2-ethylpyridin-4-yl)-3-(1H-tetrazol-5-yl)phenyl] cyclopropane-carboxamide] were 20.8 nM, 14.8 nM and 7.29 nM.
